According to ChEMBL document CHEMBL1201862, “PubChem BioAssay data set” (2004):
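The compound was tested at five concentrations on cells cultured in 96-well plates, with a 48-hour exposure period. Here, GI50 denotes the concentration required for 50% inhibition of growth.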 Activity calls are given as the source filed them. Rule as the data show it: active = GI50 up to about 1.1 µM and inactive = higher.

Assays:
Assay in all cases: DTP human tumour cell line panel, 48 h
IGROV-1 = tested on: IGROV-1
SN12C = tested on: SN12C
M14 = tested on: M14
SW-620 = tested on: SW-620
RPMI-8226 = tested on: RPMI-8226
CAKI-1 = tested on: CAKI-1
EKVX = tested on: EKVX
SNB-19 = tested on: SNB-19
ACHN = tested on: ACHN
LXFL 529 = tested on: LXFL 529
786-0 = tested on: 786-0
SK-OV-3 = tested on: SK-OV-3
HCC 2998 = tested on: HCC 2998
LOX IMVI = tested on: LOX IMVI
Hs-578T = tested on: Hs-578T
PC-3 = tested on: PC-3
T47D = tested on: T47D
MDA-N = tested on: MDA-N
MCF7 = tested on: MCF7
BT-549 = tested on: BT-549

Measured: GI50

COc1ccc(/C=C/c2cc(OC)c(OCc3ccccc3)c(OC)c2)cc1
inactive: IGROV-1 > 100 µM | SN12C > 100 µM | M14 87.5 µM | SW-620 > 100 µM | RPMI-8226 57.9 µM | CAKI-1 > 100 µM | EKVX > 100 µM | SNB-19 > 100 µM | ACHN > 100 µM | LXFL 529 > 100 µM | 786-0 > 100 µM | SK-OV-3 > 100 µM | HCC 2998 > 100 µM

Nc1nc(=O)[nH]c2c1cnn2C1CCCCO1 (stereo unspecified)
inactive: IGROV-1 > 100 µM | SN12C > 100 µM | M14 > 100 µM | SW-620 > 100 µM | RPMI-8226 > 100 µM | CAKI-1 > 100 µM | EKVX > 100 µM | LOX IMVI > 100 µM | SNB-19 > 100 µM | ACHN > 100 µM | LXFL 529 > 100 µM | HCC 2998 > 100 µM

Nc1nc(SCc2ccccc2Cl)c2[nH]cnc2n1
inactive: IGROV-1 41.8 µM | SN12C 72.3 µM | M14 > 100 µM | SW-620 > 100 µM | RPMI-8226 > 100 µM | EKVX 85.9 µM | LOX IMVI 44.2 µM | SNB-19 70.1 µM | ACHN 31.5 µM | LXFL 529 62.1 µM | SK-OV-3 24.7 µM | HCC 2998 > 100 µM

Cc1cccc(C(=O)c2cccc3ccccc23)c1C(=O)O
inactive: IGROV-1 > 100 µM | SN12C > 100 µM | M14 > 100 µM | SW-620 > 100 µM | RPMI-8226 > 100 µM | EKVX > 100 µM | LOX IMVI > 100 µM | SNB-19 > 100 µM | ACHN > 100 µM | LXFL 529 > 100 µM | 786-0 > 100 µM | SK-OV-3 39.1 µM

O=c1c2cc3c(=O)n(CCc4ccccc4CO)c(=O)c3cc2c(=O)n1CCc1ccccc1CO
inactive: IGROV-1 > 100 µM | SN12C > 100 µM | SW-620 > 100 µM | LOX IMVI > 100 µM | SNB-19 > 100 µM | ACHN > 100 µM | LXFL 529 > 100 µM | SK-OV-3 > 100 µM

C=C(N=[N+]=[N-])c1cn(C2CC(O)C(CO)O2)c(=O)[nH]c1=O (stereo unspecified)
inactive: IGROV-1 > 100 µM | SN12C > 100 µM | M14 > 100 µM | SW-620 > 100 µM | RPMI-8226 > 100 µM | CAKI-1 > 100 µM | EKVX > 100 µM | LOX IMVI > 100 µM | SNB-19 > 100 µM | ACHN > 100 µM | LXFL 529 > 100 µM | 786-0 > 100 µM | SK-OV-3 > 100 µM | HCC 2998 > 100 µM

C=CCc1cc(OC)c2c(c1)C(OC(C)=O)CC(c1ccc(OC)c(OC)c1)O2 (stereo unspecified)
inactive: IGROV-1 > 100 µM | SN12C > 100 µM | M14 > 100 µM | SW-620 > 100 µM | CAKI-1 > 100 µM | EKVX > 100 µM | SNB-19 49.4 µM | ACHN > 100 µM | LXFL 529 > 100 µM | SK-OV-3 > 100 µM | HCC 2998 > 100 µM

CCOC(=O)C(=O)NCCCN1CCOCC1
inactive: IGROV-1 > 100 µM | SN12C > 100 µM | M14 > 100 µM | SW-620 > 100 µM | CAKI-1 > 100 µM | EKVX > 100 µM | LOX IMVI > 100 µM | SNB-19 > 100 µM | ACHN > 100 µM | LXFL 529 > 100 µM | SK-OV-3 > 100 µM | HCC 2998 > 100 µM

O=[N+]([O-])c1ccc(COc2cccc3cccnc23)cc1
inactive: IGROV-1 22.5 µM | SN12C 22.6 µM | M14 10.6 µM | RPMI-8226 13 µM | CAKI-1 30.3 µM | EKVX 18.9 µM | LOX IMVI 11.7 µM | SNB-19 27.4 µM | ACHN 19.6 µM | LXFL 529 23.5 µM | 786-0 17.2 µM | SK-OV-3 32.3 µM | HCC 2998 22.3 µM

COc1cc([C@@H]2c3cc4c(cc3[C@@H](c3c(O)cc(O)c5c3O[C@H](c3ccc(O)c(O)c3)[C@H](OC(=O)c3cc(O)c(O)c(O)c3)C5)[C@H]3COC(=O)[C@H]23)OCO4)cc(OC)c1O
inactive: Hs-578T 96.4 µM | IGROV-1 57.7 µM | SN12C 22.3 µM | M14 23.4 µM | SW-620 44.4 µM | RPMI-8226 26.6 µM | CAKI-1 76.6 µM | EKVX 44.7 µM | LOX IMVI 29.2 µM | SNB-19 30.1 µM | ACHN 53.7 µM | PC-3 42.8 µM | T47D > 100 µM | 786-0 22.5 µM | SK-OV-3 44.1 µM | MDA-N 18.4 µM | MCF7 42 µM | HCC 2998 33.8 µM | BT-549 > 100 µM
